Converted amounts (≈) assume the structure as drawn.
System: MCF7
Assay: Cytotoxicity against human MCF7 cells after 72 hrs by sulforhodamine B assay
Type: functional, cell-based
Conditions: MCF7, 72 h

SMILES	IC50
CO[C@]12C=C3C(=O)c4c(O)cccc4O[C@@]34[C@@H](C1)C(C)(C)O[C@]4(CC=C(C)C)C2=O (racemic)	0.36 µg/mL (≈ 0.877 µM)
CO[C@]12C=C3C(=O)c4c(O)cccc4O[C@@]34C[C@@H]1C(C)(C)O[C@]2(CC=C(C)C)C4=O (racemic)	> 5 µg/mL
CC[C@@]1(O)C(=O)OCc2c1cc1n(c2=O)Cc2cc3ccccc3nc2-1 [CAMPTOTHECIN]	< 0.024 µg/mL
COC(=O)[C@@]1(CC=C(C)C)OC(C)(C)[C@@H]2CC(=O)C=C3C(=O)c4c(O)cccc4O[C@]321 (racemic)	> 5 µg/mL

Reference: ChEMBL document CHEMBL3352309, “Three types of cytotoxic natural caged-scaffolds: pure enantiomers or partial racemates” (J Nat Prod, 2014)
